Measurements reported in the supplement of paper PMC11061612.

How the values were obtained:
Experiment in all cases: combination Emax (second highest fraction inhibited in the dose matrix, 72 h); higher = more inhibition; extreme values may be limits of the assay
[1] = system: 697 (B-Lymphoblastic Leukemia)
Summary of the method: (§1)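 After 24 hours at 37°C and 5% CO2 in 1536-well plates, cells in DMEM/F12 or RPMI plus 10% FBS received two-drug dose matrices for 72 hours. Viability came from CellTiter-Glo 2.0 luminescence and was scaled as inhibition, anchored at 0 by vehicle wells and at 1 by blank wells. Combination Emax is taken as the second-highest inhibition in the matrix, and Bliss excess as the observed combination effect less EA + EB − EA·EB, with EA and EB the single-agent effects.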

[2] = system: CTV-1 (T-Lymphoblastic Leukemia)
Summary of the method: as §1

[3] = system: DB (B-Cell Non-Hodgkin's Lymphoma)
Summary of the method: as §1

[4] = system: DMS-273 (Small Cell Lung Carcinoma)
Summary of the method: as §1

DSH1 (Bladder Carcinoma) = system: DSH1 (Bladder Carcinoma)
Summary of the method: as §1

IGR-1 (Melanoma) = system: IGR-1 (Melanoma)
Summary of the method: as §1

[5] = system: KARPAS-1106P (B-Cell Non-Hodgkin's Lymphoma)
Summary of the method: as §1

[6] = system: KATOIII (Gastric Carcinoma)
Summary of the method: as §1

[7] = system: MFH-ino (Other Solid Carcinomas)
Summary of the method: as §1

[8] = system: NCI-H1299 (Non-Small Cell Lung Carcinoma)
Summary of the method: as §1

[9] = system: NCI-H1694 (Small Cell Lung Carcinoma)
Summary of the method: as §1

[10] = system: NCI-H1781 (Lung Adenocarcinoma)
Summary of the method: as §1

NCI-H2595 (Mesothelioma) = system: NCI-H2595 (Mesothelioma)
Summary of the method: as §1

[11] = system: OCI-AML2 (Acute Myeloid Leukemia)
Summary of the method: as §1

RH-1 (Ewing's Sarcoma) = system: RH-1 (Ewing's Sarcoma)
Summary of the method: as §1

SK-N-FI (Neuroblastoma) = system: SK-N-FI (Neuroblastoma)
Summary of the method: as §1

[12] = system: SW1990 (Pancreatic Carcinoma)
Summary of the method: as §1

[13] = system: SW756 (Cervical Carcinoma)
Summary of the method: as §1

[14] = system: SW780 (Bladder Carcinoma)
Summary of the method: as §1

[15] = system: U-266 (Plasma Cell Myeloma)
Summary of the method: as §1

COc1cc2ncnc(Nc3ccc(F)c(Cl)c3)c2cc1OCCCN1CCOCC1 [Gefitinib] + CC(C)n1c(=O)n(C)c2cnc3cc(F)c(-c4ccc(OCCCN5CCCCC5)nc4)cc3c21 [AZD1390] (first compound max 10 µM, 7x7, partner max 0.3 µM)
combination Emax [1]: 0.422
combination Emax [2]: 0.785
combination Emax [3]: 0.328
combination Emax [4]: 0.325
combination Emax (DSH1 (Bladder Carcinoma)): 0.858
combination Emax (IGR-1 (Melanoma)): 0.635
combination Emax [5]: 0.267
combination Emax [6]: 0.353
combination Emax [7]: 0
combination Emax [8]: 0.0669
combination Emax [9]: 0.19
combination Emax [10]: 0.538
combination Emax (NCI-H2595 (Mesothelioma)): 0.129
combination Emax [11]: 0.083
combination Emax (RH-1 (Ewing's Sarcoma)): 0.188
combination Emax (SK-N-FI (Neuroblastoma)): 0.175
combination Emax [12]: 0.213
combination Emax [13]: 0.1
combination Emax [14]: 0.14
combination Emax [15]: 0.124

COc1nnc2ccc(N3CCC(c4ccc(OCCN5CCN(C)C(=O)[C@H]5C)cc4)CC3)nn12 [AZD5153] + CC1(C)CCC(CN2CCN(c3ccc(C(=O)NS(=O)(=O)c4ccc(NCC5CCOCC5)c([N+](=O)[O-])c4)c(Oc4cnc5[nH]ccc5c4)c3)CC2)=C(c2ccc(Cl)cc2)C1 [Venetoclax] (first compound max 1 µM, 7x7, partner max 1 µM)
combination Emax [1]: 1
combination Emax [2]: 0.963
combination Emax [3]: 0.991
combination Emax [4]: 0.749
combination Emax (DSH1 (Bladder Carcinoma)): 0.623
combination Emax (IGR-1 (Melanoma)): 0.433
combination Emax [5]: 0.761
combination Emax [6]: 0.337
combination Emax [7]: 0.415
combination Emax [8]: 0.691
combination Emax [9]: 0.551
combination Emax [10]: 0.224
combination Emax (NCI-H2595 (Mesothelioma)): 0.375
combination Emax [11]: 1
combination Emax (RH-1 (Ewing's Sarcoma)): 0.334
combination Emax (SK-N-FI (Neuroblastoma)): 0.629
combination Emax [12]: 0.108
combination Emax [13]: 0.315
combination Emax [14]: 0.375
combination Emax [15]: 0.272

CN(C)CCCOc1ccc(-c2ccc3ncc4c(c3c2)n(C2CCOCC2)c(=O)n4C)cn1 [AZD0156] + C=CCn1c(=O)c2cnc(Nc3ccc(N4CCN(C)CC4)cc3)nc2n1-c1cccc(C(C)(C)O)n1 [AZD1775] (first compound max 1 µM, partner max 1 µM)
combination Emax [1]: 1
combination Emax [2]: 0.962
combination Emax [3]: 0.891
combination Emax [4]: 0.589
combination Emax (DSH1 (Bladder Carcinoma)): 0.421
combination Emax (IGR-1 (Melanoma)): 0.223
combination Emax [5]: 0.874
combination Emax [6]: 0.213
combination Emax [7]: 0.169
combination Emax [8]: 0.742
combination Emax [9]: 0.367
combination Emax [10]: 0.43
combination Emax (NCI-H2595 (Mesothelioma)): 0.12
combination Emax [11]: 0.97
combination Emax (RH-1 (Ewing's Sarcoma)): 1
combination Emax (SK-N-FI (Neuroblastoma)): 0.722
combination Emax [12]: 0.483
combination Emax [13]: 0.379
combination Emax [14]: 0.124
combination Emax [15]: 0.737

CC(=O)c1c(C)c2cnc(Nc3ccc(N4CCNCC4)cn3)nc2n(C2CCCC2)c1=O [Palbociclib] + CC1(C)CCC(CN2CCN(c3ccc(C(=O)NS(=O)(=O)c4ccc(NCC5CCOCC5)c([N+](=O)[O-])c4)c(Oc4cnc5[nH]ccc5c4)c3)CC2)=C(c2ccc(Cl)cc2)C1 [Venetoclax] (first compound max 10 µM, 7x7, partner max 1 µM)
combination Emax [1]: 1
combination Emax [2]: 0.921
combination Emax [3]: 0.962
combination Emax [4]: 0.351
combination Emax (DSH1 (Bladder Carcinoma)): 0.439
combination Emax (IGR-1 (Melanoma)): 0.764
combination Emax [5]: 0.599
combination Emax [6]: 0.358
combination Emax [7]: 0.219
combination Emax [8]: 0.326
combination Emax [9]: 0.404
combination Emax [10]: 0.118
combination Emax (NCI-H2595 (Mesothelioma)): 0.104
combination Emax [11]: 1
combination Emax (RH-1 (Ewing's Sarcoma)): 0.277
combination Emax (SK-N-FI (Neuroblastoma)): 0.213
combination Emax [12]: 0.143
combination Emax [13]: 0.0569
combination Emax [14]: 0.108
combination Emax [15]: 0.35

COc1cccc(OCCCN)c1-c1cc(Nc2cnc(C#N)cn2)n[nH]1 [Prexasertib] + O=C(c1cc(Cc2n[nH]c(=O)c3ccccc23)ccc1F)N1CCN(C(=O)C2CC2)CC1 [Olaparib] (first compound max 1 µM, 7x7, partner max 10 µM)
combination Emax [1]: 1
combination Emax [2]: 0.821
combination Emax [3]: 0.687
combination Emax [4]: 0.919
combination Emax (DSH1 (Bladder Carcinoma)): 0.688
combination Emax (IGR-1 (Melanoma)): 0.566
combination Emax [5]: 0.897
combination Emax [6]: 0.431
combination Emax [7]: 0.45
combination Emax [8]: 0.694
combination Emax [9]: 0.797
combination Emax [10]: 0.631
combination Emax (NCI-H2595 (Mesothelioma)): 0.23
combination Emax [11]: 1
combination Emax (RH-1 (Ewing's Sarcoma)): 1
combination Emax (SK-N-FI (Neuroblastoma)): 0.889
combination Emax [12]: 0.696
combination Emax [13]: 0.456
combination Emax [14]: 0.23
combination Emax [15]: 0.749

Cc1cc2ncnn2cc1Nc1ncc2c(n1)n(C1CCOCC1)c(=O)n2C [AZD7648] + CN(C)CCCOc1ccc(-c2ccc3ncc4c(c3c2)n(C2CCOCC2)c(=O)n4C)cn1 [AZD0156] (first compound max 10 µM, 7x7, partner max 1 µM)
combination Emax [1]: 0.486
combination Emax [2]: 0.262
combination Emax [3]: 0.551
combination Emax [4]: 0.411
combination Emax (DSH1 (Bladder Carcinoma)): 0.286
combination Emax (IGR-1 (Melanoma)): 0.0864
combination Emax [5]: 0.423
combination Emax [6]: 0.291
combination Emax [7]: 0.341
combination Emax [8]: 0.352
combination Emax [9]: 0.165
combination Emax [10]: 0.352
combination Emax (NCI-H2595 (Mesothelioma)): 0.208
combination Emax [11]: 0.367
combination Emax (RH-1 (Ewing's Sarcoma)): 0.127
combination Emax (SK-N-FI (Neuroblastoma)): 0.353
combination Emax [12]: 0.212
combination Emax [13]: 0.205
combination Emax [14]: 0.18
combination Emax [15]: 0.226
